Measurements published in US9669034B2, “4-aryl-N-phenyl-1,3,5-triazin-2-amines containing a sulfoximine group” (BAYER INTELLECTUAL PROPERTY GMBH, priority 2011, dated 2017).

Experiments:
CDK9/CycT1 = CDK9/CycT1 (Homo sapiens (Human), UniProt P50750); assay: CDK9/CycT1 kinase assay (TR-FRET); format: biochemical; conditions: Method 1
Text: 1. CDK9/CycT1 Kinase Assay:
CDK9/CycT1—inhibitory activity of compounds of the present invention was quantified employing the CDK9/CycT1 TR-FRET assay as described in the following paragraphs:
Recombinant full-length His-tagged human CDK9 and CycT1, expressed in insect cells and purified by Ni-NTA affinity chromatography, were purchased from Invitrogen (Cat. No PV4131). As substrate for the kinase reaction biotinylated peptide biotin-Ttds-[…]

CDK2/CycE = CDK2/CycE (Homo sapiens (Human), UniProt P24941); assay: CDK2/CycE kinase assay (TR-FRET); format: biochemical; conditions: Method 2
Text: 2. CDK2/CycE Kinase Assay:
CDK2/CycE—inhibitory activity of compounds of the present invention was quantified employing the CDK2/CycE TR-FRET assay as described in the following paragraphs:
Recombinant fusion proteins of GST and human CDK2 and of GST and human CycE, expressed in insect cells (Sf9) and purified by Glutathion-Sepharose affinity chromatography, were purchased from ProQinase GmbH (Freiburg, Germany). As substrate for the kinase reaction biotinylated peptide biotin-Ttds-[…]

[1] = system: HeLa human cervical tumour cells; assay: Proliferation assay (crystal violet), HeLa; format: cell-based; conditions: Homo sapiens, HeLa, Method 3, read-out: Inhibition of HeLa cell proliferation, IC50
Protocol: Cultivated tumour cells (NCI-H460, human non-small cell lung carcinoma cells, ATCC HTB-177; DU145, hormone-independent human prostate carcinoma cells, ATCC HTB-81; HeLa-MaTu, human cervical carcinoma cells, EPO-GmbH, Berlin; HeLa-MaTu-ADR, multidrug-resistant human cervical carcinoma cells, EPO-GmbH, Berlin; HeLa human cervical tumour cells, ATCC CCL-2; Caco-2 human colorectal carcinoma, ATCC HTB-37; B16F10 mouse melanoma cells, ATCC CRL-6475) were plated at a density of 5000 cells/well (DU145, HeLa-MaTu-ADR), 3000 cells/well (NCI-H460, HeLa-MaTu, HeLa), 1500 cells/well (Caco-2), or 1000 cells/well (B16 F10) in a 96-well multititer plate in 200 μL of their respective growth medium supplemented 10% fetal calf serum. After 24 hours, the cells of one plate (zero-point plate) were stained with crystal violet (see below), while the medium of the other plates was replaced by fresh culture medium (200 μL), to which the test substances were added in various concentrations (0 M, as well as in the range of […]; the final concentration of the solvent dimethylsulfoxide was 0.5%). The cells were incubated for 4 days in the presence of test substances. Cell proliferation was determined by staining the cells with crystal violet: the cells were fixed by adding 20 μL/measuring point of an 11% glutaric aldehyde solution for 15 minutes at room temperature. After three washing cycles of the fixed cells with water, the plates were dried at room temperature. The cells were stained by adding 100 μL/measuring point of a 0.1% crystal violet solution (pH 3.0). After three washing cycles of the stained cells with water, the plates were dried at room temperature. The dye was dissolved by adding 100 μL/measuring point of a 10% acetic acid solution. The absorbance was determined by photometry at a wavelength of 595 nm. The change of cell number, in percent, was calculated by normalization of the measured values to the absorbance values of the zero-point plate (=0%) and the absorbance of the untreated (0 M) cells (=100%). The IC50 values were determined by means of a 4 parameter fit.

[2] = unit cell empty (table: nM or μM)

Sequence of CDK9/CycT1 (P50750 whole entry): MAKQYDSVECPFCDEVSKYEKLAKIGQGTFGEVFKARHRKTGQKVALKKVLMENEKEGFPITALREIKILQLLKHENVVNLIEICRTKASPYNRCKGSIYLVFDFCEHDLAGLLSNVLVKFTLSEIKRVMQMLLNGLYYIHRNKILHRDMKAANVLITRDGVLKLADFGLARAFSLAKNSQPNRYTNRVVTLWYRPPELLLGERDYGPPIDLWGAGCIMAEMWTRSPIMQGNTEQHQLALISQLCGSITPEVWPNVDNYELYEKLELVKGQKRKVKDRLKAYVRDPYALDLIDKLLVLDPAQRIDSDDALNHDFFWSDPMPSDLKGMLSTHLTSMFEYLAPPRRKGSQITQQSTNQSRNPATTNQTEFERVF
Sequence of CDK9/CycT1 (O60563 whole entry partner): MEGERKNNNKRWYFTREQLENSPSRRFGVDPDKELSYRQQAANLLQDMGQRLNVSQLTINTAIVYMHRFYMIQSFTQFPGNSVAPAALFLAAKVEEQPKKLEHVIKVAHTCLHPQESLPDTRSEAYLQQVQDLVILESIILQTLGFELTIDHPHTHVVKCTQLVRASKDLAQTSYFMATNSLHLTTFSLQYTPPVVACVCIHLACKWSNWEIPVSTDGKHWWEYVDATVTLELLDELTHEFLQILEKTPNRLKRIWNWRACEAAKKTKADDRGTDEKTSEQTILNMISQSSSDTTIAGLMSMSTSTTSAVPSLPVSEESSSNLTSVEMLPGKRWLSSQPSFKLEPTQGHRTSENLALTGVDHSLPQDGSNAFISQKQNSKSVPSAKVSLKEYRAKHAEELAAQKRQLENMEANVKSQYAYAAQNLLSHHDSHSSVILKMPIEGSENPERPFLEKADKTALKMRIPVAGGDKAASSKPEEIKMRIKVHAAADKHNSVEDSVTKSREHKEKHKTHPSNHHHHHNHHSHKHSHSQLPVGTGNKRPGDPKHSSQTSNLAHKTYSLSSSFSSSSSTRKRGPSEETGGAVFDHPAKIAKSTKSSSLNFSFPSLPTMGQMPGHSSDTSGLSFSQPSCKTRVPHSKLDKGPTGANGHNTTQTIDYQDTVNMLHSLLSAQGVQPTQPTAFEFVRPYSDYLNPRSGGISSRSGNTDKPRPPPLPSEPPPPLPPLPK

| SMILES | IC50 (CDK9/CycT1) [nM] | IC50 (CDK2/CycE) [nM] | IC50 [1] [µM] | IC50 (CDK9/CycT1; [2]) [nM] | IC50 (CDK2/CycE; [2]) [nM] |
| --- | --- | --- | --- | --- | --- |
| CCOC(=O)N=S(C)(=O)Cc1cccc(Nc2ncnc(-c3ccccc3OC)n2)c1 (racemic) [Example 25, (rac)-Ethyl [(3-{[4-(2-methoxyphenyl)-1,3,5-triazin-2-yl]amino}benzyl)(methyl)oxido-λ^6-sulfanylidene]carbamate] | 28 | 6300 | 1.1 | – | – |
| CS(=N)(=O)Cc1cccc(Nc2ncnc(-c3ccccc3OCc3ccc(Cl)c(Cl)c3)n2)c1 (racemic) [Example 61, (rac)-4-{2-[(3,4-Dichlorobenzyl)oxy]phenyl}-N-{3-[(S-methylsulfonimidoyl)methyl]phenyl}-1,3,5-triazin-2-amine] | 15 | 1200 | – | – | – |
| CS(=N)(=O)Cc1cccc(Nc2ncnc(-c3ccc(F)cc3OCc3cccnc3)n2)c1 (racemic) [Example 66, (rac)-4-[4-Fluoro-2-(pyridin-3-ylmethoxy)phenyl]-N-{3-[(S-methylsulfonimidoyl)methyl]phenyl}-1,3,5-triazin-2-amine] | 24 | 1600 | 1.7 | – | – |
| CS(=N)(=O)Cc1cccc(Nc2ncnc(-c3ccc(F)cc3OCc3ccccn3)n2)c1 (racemic) [Example 67, (rac)-4-[4-Fluoro-2-(pyridin-2-ylmethoxy)phenyl]-N-{3-[(S-methylsulfonimidoyl)methyl]phenyl}-1,3,5-triazin-2-amine] | 97 | 6900 | – | – | – |
| CS(=N)(=O)Cc1cccc(Nc2ncnc(-c3ccc(F)cc3OCCC3CC3)n2)c1 (racemic) [Example 76, (rac)-4-[2-(2-Cyclopropylethoxy)-4-fluorophenyl]-N-{3-[(S-methylsulfonimidoyl)methyl]phenyl}-1,3,5-triazin-2-amine] | 30 | 3200 | 1.1 | – | – |
| CS(=N)(=O)Cc1cccc(Nc2ncnc(-c3ccc(F)cc3OCc3ccc(F)c(F)c3)n2)c1 (racemic) [Example 80, (rac)-4-{2-[(3,4-Difluorobenzyl)oxy]-4-fluorophenyl}-N-{3-[(S-methylsulfonimidoyl)methyl]phenyl}-1,3,5-triazin-2-amine] | 13 | 1000 | 0.73 | – | – |
| COc1cc(Cl)ccc1-c1ncnc(Nc2cccc(CS(C)(=N)=O)c2)n1 (single isomer, unassigned) [Example 13, 4-(4-Chloro-2-methoxyphenyl)-N-{3-[(S-methylsulfonimidoyl)methyl]phenyl}-1,3,5-triazin-2-amine] | 93 | 9500 | – | – | – |
| COc1cc(Cl)ccc1-c1ncnc(Nc2cccc(CS(C)(=N)=O)c2)n1 (single isomer, unassigned) [Example 14, 4-(4-Chloro-2-methoxyphenyl)-N-{3-[(S-methylsulfonimidoyl)methyl]phenyl}-1,3,5-triazin-2-amine] | 160 | 13000 | – | – | – |
| COc1ccccc1-c1ncnc(Nc2cccc(CS(C)(=N)=O)c2)n1 (single isomer, unassigned) [Example 27, 4-(2-Methoxyphenyl)-N-{3-[(S-methylsulfonimidoyl)methyl]phenyl}-1,3,5-triazin-2-amine] | 100 | 7600 | – | – | – |
| COc1ccccc1-c1ncnc(Nc2cccc(CS(C)(=N)=O)c2)n1 (single isomer, unassigned) [Example 28, 4-(2-Methoxyphenyl)-N-{3-[(S-methylsulfonimidoyl)methyl]phenyl}-1,3,5-triazin-2-amine] | 89 | 5900 | – | – | – |
| CS(=N)(=O)Cc1cccc(Nc2ncnc(-c3cccc4c3OCC4)n2)c1 (single isomer, unassigned) [Example 35, 4-(2,3-Dihydro-1-benzofuran-7-yl)-N-{3-[(S-methylsulfonimidoyl)methyl]phenyl}-1,3,5-triazin-2-amine] | 64 | 3100 | – | – | – |
| CS(=N)(=O)Cc1cccc(Nc2ncnc(-c3cccc4c3OCC4)n2)c1 (single isomer, unassigned) [Example 36, 4-(2,3-Dihydro-1-benzofuran-7-yl)-N-{3-[(S-methylsulfonimidoyl)methyl]phenyl}-1,3,5-triazin-2-amine] | 50 | 2900 | – | – | – |
| CCS(=N)(=O)Cc1cccc(Nc2ncnc(-c3ccc(F)cc3OC)n2)c1 (single isomer, unassigned) [Example 109, N-{3-[(S-ethylsulfonimidoyl)methyl]phenyl}-4-(4-fluoro-2-methoxyphenyl)-1,3,5-triazin-2-amine] | – | – | – | 24 | 780 |

Now from value to compound:

| IC50 (CDK9/CycT1) [nM] | IC50 (CDK2/CycE) [nM] | IC50 [1] [µM] | IC50 (CDK9/CycT1; [2]) [nM] | IC50 (CDK2/CycE; [2]) [nM] | SMILES |
| --- | --- | --- | --- | --- | --- |
| – | 940 | 1.2 | – | – | CS(=N)(=O)Cc1cccc(Nc2ncnc(-c3cccc4c3OCCC4)n2)c1 (racemic) [Example 30, (rac)-4-(3,4-Dihydro-2H-chromen-8-yl)-N-{3-[(S-methylsulfonimidoyl)methyl]phenyl}-1,3,5-triazin-2-amine] |
| 20 | 1800 | 1 | – | – | COc1cc(F)ccc1-c1ncnc(Nc2cccc(CS(C)(=O)=NS(C)(=O)=O)c2)n1 (racemic) [Example 44, (rac)-N-[(3-{[4-(4-Fluoro-2-methoxyphenyl)-1,3,5-triazin-2-yl]amino}benzyl)(methyl)oxido-λ^6-sulfanylidene]methanesulfonamide] |
| 26 | 1400 | 0.86 | – | – | COc1cc(F)ccc1-c1ncnc(Nc2ccc(Cl)c(CS(C)(=N)=O)c2)n1 (racemic) [Example 59, (rac)-N-{4-Chloro-3-[(S-methylsulfonimidoyl)methyl]phenyl}-4-(4-fluoro-2-methoxyphenyl)-1,3,5-triazin-2-amine] |
| 7 | 220 | – | – | – | [2H]c1c([2H])c([2H])c(C([2H])([2H])Oc2cc(F)ccc2-c2ncnc(Nc3cccc(CS(C)(=N)=O)c3)n2)c([2H])c1[2H] (racemic) [Example 62, (rac)-4-(4-Fluoro-2-{[(^2H5)phenyl(^2H2)methyl]oxy}phenyl)-N-{3-[(S-methylsulfonimidoyl)methyl]phenyl}-1,3,5-triazin-2-amine] |
| 79 | 6000 | – | – | – | CS(=N)(=O)Cc1cccc(Nc2ncnc(-c3ccc(F)cc3OCCC(F)(F)F)n2)c1 (racemic) [Example 65, (rac)-4-[4-Fluoro-2-(3,3,3-trifluoropropoxy)phenyl]-N-{3-[(S-methylsulfonimidoyl)methyl]phenyl}-1,3,5-triazin-2-amine] |
| 23 | 1500 | 0.86 | – | – | CS(=N)(=O)Cc1cccc(Nc2ncnc(-c3ccc(F)cc3OCc3cncs3)n2)c1 (racemic) [Example 81, (rac)-4-[4-Fluoro-2-(1,3-thiazol-5-ylmethoxy)phenyl]-N-{3-[(S-methylsulfonimidoyl)methyl]phenyl}-1,3,5-triazin-2-amine] |
| 2 | 300 | – | – | – | COc1cc(F)ccc1-c1ncnc(Nc2cccc(CS(=O)(=NC#N)C3CC3)c2)n1 (racemic) [Example 113, (rac)-[Cyclopropyl(3-{[4-(4-fluoro-2-methoxyphenyl)-1,3,5-triazin-2-yl]amino}benzyl)oxido-λ^6-sulfanylidene]cyanamide] |
| – | – | – | 9 | 1100 | CCS(=N)(=O)Cc1cccc(Nc2ncnc(-c3ccc(F)cc3OC)n2)c1 (single isomer, unassigned) [Example 110, N-{3-[(S-ethylsulfonimidoyl)methyl]phenyl}-4-(4-fluoro-2-methoxyphenyl)-1,3,5-triazin-2-amine] |
| 22 | 3500 | – | – | – | CC(Oc1cc(F)ccc1-c1ncnc(Nc2cccc(CS(C)(=N)=O)c2)n1)c1ccc(F)cc1 (stereo not drawn) [Example 69, 4-{4-Fluoro-2-[1-(4-fluorophenyl)ethoxy]phenyl}-N-{3-[(S-methylsulfonimidoyl)methyl]phenyl}-1,3,5-triazin-2-amine] |
